The values that follow come from US10017492B2 (KANGPU BIOPHARMACEUTICALS, LTD., priority 2014, dated 2018).

Like-named read-outs stand apart in the source and are kept apart here. A value given as a limit tells only on which side of the number the result lay.

The test system of assay [1] is TNF-α. Kind of assay: TNF-α activity inhibiting assay (LPS-stimulated peripheral blood, ELISA). Particulars: compound 100 nM, diluted peripheral blood of healthy volunteers, LPS 10 ng/mL, 6 hours; for inhibition at 0.1 µM: Homo sapiens, read-out: Inhibitory Rate on TNF-α (%). In kind it is cell-based, human. Here is the method:
TNF-α Activity Inhibiting Assay
Peripheral blood from healthy volunteers was collected and collected with EDTA anticoagulant tubes. After being diluted 5-fold with 1640 medium (Gibco, catalog number 11875-093, USA), the blood was added to 96-well cell culture plates (Costar, catalog number 3599, USA) and then treated with 10 μL solution of the compound of general formula (I) of the present invention in DMSO (Sigma, catalog number D2650, USA). The final concentration of the compound was 100 nM, and the final concentration of DMSO was 0.2%. After incubation for 60 minutes in an incubator at 37° C. under 5% CO2, 10 μL LPS (Sigma, catalog number L-2880, USA) was added to the reaction system, and the final concentration was 10 ng/mL. After further culturing for 6 hours in the incubator at 37° C. under 5% CO2, the supernatant was collected. The content of TNF-α was determined by ELISA (BD Biosciences, catalog number 555212, USA). Absorbance was detected at OD450 nm with a microplate reader, with OD 650 nm as reference. The control, a solution containing 0.2% DMSO medium, was as 0% inhibition. Raw data and standard curves were recorded. The four-parameter drug inhibition curve was plotted by XL-fit software and the inhibition rate of each compound was calculated, as shown in Table 1.

For assay [2], the system named is MM.1S cells (myeloma cells). Kind of assay: Cell proliferation assay (MTS), MM.1S myeloma cells. It counts as cell-based. Particulars: 72 hours, read-out: IC50 values of MMIS Inhibition. The method, then:
MM.1S cells (myeloma cells) (ATCC, catalog number CRL-2974) were seeded at 1.8×10^3 per well to a 96-well culture plate containing […] (Gibco, catalog number A10491-01), and were incubated in an incubator for 24 hours at 37° C. under 5% CO2. Compounds were prepared as 20 mM stock solutions with DMSO (Sigma, catalog number D2650), and were diluted with the medium to the desired concentration (the final concentration of DMSO was 0.5%) and then were added to each well, incubated in an incubator for 72 hours at 37° C. under 5% CO2. Then, 20 μL MTS (Promega, catalog number G3581) was added to each well, and further incubated for 1-4 hours in an incubator at 37° C. under 5% CO2. OD490 nm was detected with OD650 nm as reference. The control, a solution containing 0.5% DMSO medium, was as 0% inhibition. GraphPad Prism 5 was used, slope was allowed to change to make the dose-effect curve and IC50 values were calculated, shown in table 2 for details.

In general, IC50 refers to the point on the concentration scale where inhibition reaches its midpoint. For the molecule `COc1ccc(F)c(CNc2cc(F)cc3c2CN(C2CCC(=O)NC2=O)C3=O)c1` (stereo not shown) [Compound A320, 3-(6-fluoro-4-((2-fluoro-5-methoxybenzyl)amino)-1-oxoisoindolin-2-yl)-piperidine-2,6-dione], the inhibition at 0.1 µM in assay [1] was under 50%. In addition, the IC50 in assay [2] (Homo sapiens, MM1.S) was at least 300 nM.

On to `Nc1cccc(CNc2cccc3c2CN(C2CCC(=O)NC2=O)C3=O)c1F` (stereo not shown) [Compound A384, 3-(4-((3-amino-2-fluorobenzyl)amino)-1-oxoisoindolin-2-yl)piperidine-2,6-dione], for which, in assay [1], the inhibition at 0.1 µM is at least 50%. The concentration for half-maximal inhibition (IC50) in assay [2] (Homo sapiens, MM1.S) was under 300 nM.

Consider `O=C1CCC(N2Cc3c(NCc4cc(OCCN5CCCC5)ccc4F)cccc3C2=O)C(=O)N1` (stereo not shown) [Compound A376, 3-(4-((2-fluoro-5-(2-(pyrrolidin-1-yl)ethoxy)benzyl)amino)-1-oxoisoindolin-2-yl)piperidine-2,6-dione], for which, in assay [1], the inhibition at 0.1 µM is at least 50%. Further, in assay [2] (Homo sapiens, MM1.S), the IC50 was under 300 nM.

On to `COc1ccc(F)c(COc2cccc3c2CN(C2CCC(=O)NC2=O)C3=O)c1` (stereo not shown) [Compound A331, 3-(4-((2-fluoro-5-methoxybenzyl)oxy)-1-oxoisoindolin-2-yl)piperidine-2,6-dione], for which the inhibition at 0.1 µM in assay [1] is at least 50%. In addition, the IC50 in assay [2] (Homo sapiens, MM1.S) is under 300 nM.

For the molecule `NS(=O)(=O)c1cccc(CNc2cccc3c2CN(C2CCC(=O)NC2=O)C3=O)c1F` (stereo not shown) [Compound A389, 3-(((2-(2,6-dioxopiperidin-3-yl)-1-oxoisoindolin-4-yl)amino)methyl)-2-fluorobenzenesulfonamide], the inhibition at 0.1 µM in assay [1] is under 50%. Besides, the IC50 in assay [2] (Homo sapiens, MM1.S) is under 300 nM.

As to `Cc1cc(CNc2cccc3c2CN(C2CCC(=O)NC2=O)C3=O)ccc1F` (stereo not shown) [Compound A351, 3-(4-((4-fluoro-3-methylbenzyl)amino)-1-oxoisoindolin-2-yl)piperidine-2,6-dione], the inhibition at 0.1 µM in assay [1] was under 50%. In addition, the IC50 in assay [2] (Homo sapiens, MM1.S) was under 300 nM.

For `CN(C)CCOc1ccc(F)c(CNc2cccc3c2CN(C2CCC(=O)NC2=O)C3=O)c1` (stereo not shown) [Compound A363, 3-(4-((5-(2-(Dimethylamino)ethoxy)-2-fluorobenzyl)amino)-1-oxoisoindolin-2-yl)piperidine-2,6-dione], in assay [1], the inhibition at 0.1 µM is under 50%. In addition, in assay [2] (Homo sapiens, MM1.S), the IC50 was at least 300 nM.

For the molecule `O=C1CCC(N2Cc3c(NCc4ccc(CN5CCOCC5)cc4)cc(F)cc3C2=O)C(=O)N1` (stereo not shown) [Compound A405, 3-(6-fluoro-4-((4-(morpholinomethyl)benzyl)amino)-1-oxoisoindolin-2-yl)piperidine-2,6-dione], in assay [1], the inhibition at 0.1 µM is under 50%. Also, in assay [2] (Homo sapiens, MM1.S), the half-inhibitory concentration (IC50) was at least 300 nM.

On to `O=C1CCC(N2Cc3c(OCc4ccc(CN5CCOCC5)cc4)cc(F)cc3C2=O)C(=O)N1` (stereo not shown) [Compound A327, 3-(6-fluoro-4-((4-(morpholinomethyl)benzyl)oxy)-1-oxoisoindolin-2-yl)-piperidine-2,6-dione], for which the inhibition at 0.1 µM in assay [1] is under 50%. For the same molecule, the IC50 in assay [2] (Homo sapiens, MM1.S) is under 300 nM.

Consider `COc1ccc(F)c(CNc2cccc3c2CN([C@H]2CCC(=O)NC2=O)C3=O)c1` [Compound A340, (S)-3-(4-((2-fluoro-5-methoxybenzyl)amino)-1-oxoisoindolin-2-yl)piperidine-2,6-dione], for which the inhibition at 0.1 µM in assay [1] was under 50%. Besides, the IC50 in assay [2] (Homo sapiens, MM1.S) is under 300 nM.

For the molecule `N#Cc1cccc(CNc2cccc3c2CN(C2CCC(=O)NC2=O)C3=O)c1F` (stereo not shown) [Compound A360, 3-(((2-(2,6-dioxopiperidin-3-yl)-1-oxoisoindolin-4-yl)amino)methyl)-2-fluorobenzonitrile], the inhibition at 0.1 µM in assay [1] was under 50%. Further, in assay [2] (Homo sapiens, MM1.S), the IC50 was under 300 nM.

On to `COc1ccc(CNc2cccc3c2CN(C2CCC(=O)NC2=O)C3=O)cc1OC` (stereo not shown) [Compound A349, 3-(4-((3,4-dimethoxybenzyl)amino)-1-oxoisoindolin-2-yl)piperidine-2,6-dione], for which, in assay [1], the inhibition at 0.1 µM is under 50%. Moreover, in assay [2] (Homo sapiens, MM1.S), the IC50 is at least 300 nM.

Turning to `Cc1cccc(CNc2cccc3c2CN(C2CCC(=O)NC2=O)C3=O)c1F` (stereo not shown) [Compound A367, 3-(4-((2-fluoro-3-methylbenzyl)amino)-1-oxoisoindolin-2-yl)piperidine-2,6-dione], in assay [1], the inhibition at 0.1 µM was at least 50%. Also, the IC50 in assay [2] (Homo sapiens, MM1.S) was under 300 nM.

Turning to `CNc1cccc(CNc2cccc3c2CN(C2CCC(=O)NC2=O)C3=O)c1F` (stereo not shown) [Compound A372, 3-(4-((2-fluoro-3-(methylamino)benzyl)amino)-1-oxoisoindolin-2-yl)piperidine-2,6-dione], in assay [1], the inhibition at 0.1 µM is at least 50%. In addition, the IC50 in assay [2] (Homo sapiens, MM1.S) is under 300 nM.

Consider `[2H]C1(N2Cc3c(NCc4ccc(CN5CCOCC5)cc4F)cccc3C2=O)CCC(=O)NC1=O` (stereo not shown) [Compound A426], for which the “Inhibitory Rate on TNF-α (%)” value in assay [1] is on record as at least 50%. Further, the concentration for half-maximal inhibition (IC50) in assay [2] was under 300 nM.

As for `[2H][C@@]1(N2Cc3c(NCc4cc(OC)ccc4F)cccc3C2=O)CCC(=O)NC1=O` [Compound A342, (R)-3-deuterium-3-(4-((2-fluoro-5-methoxybenzyl)amino)-1-oxoisoindolin-2-yl)piperidine-2,6-dione], in assay [1], the inhibition at 0.1 µM is under 50%. Moreover, the IC50 in assay [2] (Homo sapiens, MM1.S) was at least 300 nM.

On to `COc1ccc(CNc2cc(F)cc3c2CN(C2CCC(=O)NC2=O)C3=O)c(F)c1` (stereo not shown) [Compound A319, 3-(6-fluoro-4-((2-fluoro-4-methoxybenzyl)amino)-1-oxoisoindolin-2-yl)-piperidine-2,6-dione], for which the inhibition at 0.1 µM in assay [1] was under 50%. Besides, the IC50 in assay [2] (Homo sapiens, MM1.S) was at least 300 nM.

Consider `[2H][C@]1(N2Cc3c(OCc4ccc(OC)cc4F)cccc3C2=O)CCC(=O)NC1=O` [Compound A393, (S)-3-deuterium-3-(4-((2-fluoro-4-methoxybenzyl)oxy)-1-oxoisoindolin-2-yl)piperidine-2,6-dione], for which the inhibition at 0.1 µM in assay [1] is under 50%. Also, the IC50 in assay [2] (Homo sapiens, MM1.S) is under 300 nM.

On to `[2H][C@@]1(N2Cc3c(OCc4ccc(OC)cc4F)cccc3C2=O)CCC(=O)NC1=O` [Compound A392, (R)-3-deuterium-3-(4-((2-fluoro-4-methoxybenzyl)oxy)-1-oxoisoindolin-2-yl)piperidine-2,6-dione], for which, in assay [1], the inhibition at 0.1 µM was at least 50%. Besides, the IC50 in assay [2] (Homo sapiens, MM1.S) is under 300 nM.

`[2H][C@]1(N2Cc3c(OCc4cc(OC)ccc4F)cccc3C2=O)CCC(=O)NC1=O` [Compound A379, (S)-3-deuterium-3-(4-((2-fluoro-5-methoxybenzyl)oxy)-1-oxoisoindolin-2-yl)piperidine-2,6-dione]: in assay [1], the inhibition at 0.1 µM was under 50%. Further, the IC50 in assay [2] (Homo sapiens, MM1.S) was under 300 nM.

As to `NC(=O)c1cccc(CNc2cccc3c2CN(C2CCC(=O)NC2=O)C3=O)c1F` (stereo not shown) [Compound A361, 3-(((2-(2,6-Dioxopiperidin-3-yl)-1-oxoisoindolin-4-yl)amino)methyl)-2-fluorobenzamide], in assay [1], the inhibition at 0.1 µM is at least 50%. Besides, the IC50 in assay [2] (Homo sapiens, MM1.S) was under 300 nM.

Consider `[2H][C@]1(N2Cc3c(NCc4cc(CN5CCOCC5)ccc4F)cccc3C2=O)CCC(=O)NC1=O` [Compound A401, (S)-3-deuterium-3-(4-((2-fluoro-5-(morpholinomethyl)benzyl)amino)-1-oxoisoindolin-2-yl)piperidine-2,6-dione], for which the inhibition at 0.1 µM in assay [1] was at least 50%. Besides, the IC50 in assay [2] (Homo sapiens, MM1.S) was under 300 nM.

Regarding `CNc1cccc(COc2cccc3c2CN(C2CCC(=O)NC2=O)C3=O)c1F` (stereo not shown) [Compound A385, 3-(4-((2-fluoro-3-(methylamino)benzyl)oxy)-1-oxoisoindolin-2-yl)piperidine-2,6-dione], in assay [1], the inhibition at 0.1 µM is at least 50%. In addition, the half-maximal inhibitory concentration (IC50) in assay [2] (Homo sapiens, MM1.S) is under 300 nM.

With `COCCOc1ccc(F)c(CNc2cccc3c2CN(C2CCC(=O)NC2=O)C3=O)c1` (stereo not shown) [Compound A370, 3-(4-((2-fluoro-5-(2-methoxyethoxy)benzyl)amino)-1-oxoisoindolin-2-yl)piperidine-2,6-dione], in assay [1], the inhibition at 0.1 µM was under 50%. The IC50 in assay [2] (Homo sapiens, MM1.S) is at least 300 nM.

`Cc1ccc(CNc2cccc3c2CN(C2CCC(=O)NC2=O)C3=O)cc1Cl` (stereo not shown) [Compound A352, 3-(4-((3-chloro-4-methylbenzyl)amino)-1-oxoisoindolin-2-yl)piperidine-2,6-dione]: in assay [1], the inhibition at 0.1 µM is under 50%. The IC50 in assay [2] (Homo sapiens, MM1.S) was under 300 nM.

Consider `O=C1CCC(N2Cc3c(NCc4cc(OCCOC(=O)N5CCCC5)ccc4F)cccc3C2=O)C(=O)N1` (stereo not shown) [Compound A374, 2-(3-(((2-(2,6-dioxopiperidin-3-yl)-1-oxoisoindolin-4-yl)amino)methyl)-4-fluorophenoxy)ethyl pyrrolidine-1-carboxylate], for which the inhibition at 0.1 µM in assay [1] is at least 50%. Moreover, the IC50 in assay [2] (Homo sapiens, MM1.S) was under 300 nM.
